# From USRE38629E1, “Solid oral dosage form comprising a combination of metformin and glibenclamide” (Merck Sante, priority 1998, dated 2004)
# Columns and labels:
# [1] = in water at 25° C.; cited from earlier work
# [2] = Glibenclamide particle size distribution; format: physicochemical; conditions: glibenclamide batch
# Method: In-vivo bioavailability tests were performed with tablets prepared as disclosed in example 2, using two batches of glibenclamide. The two batches have the following 10 to 90% particle size range:
# The distribution of the particle size of batches A and B are illustrated in FIG. 1.
# Data from the studies with metformin hydrochloride/glibenclamide tablets formulated with glibenclamide of different particle size characteristics allowed the development of a correlation between drug particle size and the in vivo performance.
SMILES,solubility [1],10 to 90% particle size range [2]
COc1ccc(Cl)cc1C(=O)NCCc1ccc(S(=O)(=O)NC(=O)NC2CCCCC2)cc1 [glibenclamide],100 µg/mL,
"COc1ccc(Cl)cc1C(=O)NCCc1ccc(S(=O)(=O)NC(=O)NC2CCCCC2)cc1 [batch B, glibenclamide]",,15.63-91.6 μm
"COc1ccc(Cl)cc1C(=O)NCCc1ccc(S(=O)(=O)NC(=O)NC2CCCCC2)cc1 [batch A, glibenclamide]",,3.47-38.08 μm
